{"source": "BigSolDB 2.1"}
{"smiles": "O=C(O)c1cccc([N+](=O)[O-])c1C(=O)O", "values": [{"measurement": "solubility (mole fraction)", "setting": "in 1,4-dioxane, 288.17 K", "result": 0.0758}, {"measurement": "solubility (mole fraction)", "setting": "in 1,4-dioxane, 293.28 K", "result": 0.0868}, {"measurement": "solubility (mole fraction)", "setting": "in 1,4-dioxane, 298.31 K", "result": 0.097}, {"measurement": "solubility (mole fraction)", "setting": "in 1,4-dioxane, 303.29 K", "result": 0.107}, {"measurement": "solubility (mole fraction)", "setting": "in 1,4-dioxane, 308.26 K", "result": 0.116}, {"measurement": "solubility (mole fraction)", "setting": "in 1,4-dioxane, 313.2 K", "result": 0.124}, {"measurement": "solubility (mole fraction)", "setting": "in 1,4-dioxane, 318.21 K", "result": 0.132}, {"measurement": "solubility (mole fraction)", "setting": "in 1,4-dioxane, 323.29 K", "result": 0.139}, {"measurement": "solubility (mole fraction)", "setting": "in 1,4-dioxane, 328.19 K", "result": 0.146}, {"measurement": "solubility (mole fraction)", "setting": "in 1,4-dioxane, 333.18 K", "result": 0.152}, {"measurement": "solubility (mole fraction)", "setting": "in 1,4-dioxane, 338.22 K", "result": 0.158}, {"measurement": "solubility (mole fraction)", "setting": "in 1,4-dioxane, 343.16 K", "result": 0.163}, {"measurement": "solubility (mole fraction)", "setting": "in 1,4-dioxane, 348.23 K", "result": 0.167}, {"measurement": "solubility (mole fraction)", "setting": "in 1,4-dioxane, 353.32 K", "result": 0.171}, {"measurement": "solubility (mole fraction)", "setting": "in THF, 278.28 K", "result": 0.203}, {"measurement": "solubility (mole fraction)", "setting": "in THF, 283.17 K", "result": 0.204}, {"measurement": "solubility (mole fraction)", "setting": "in THF, 288.16 K", "result": 0.204}, {"measurement": "solubility (mole fraction)", "setting": "in THF, 293.21 K", "result": 0.205}, {"measurement": "solubility (mole fraction)", "setting": "in THF, 298.29 K", "result": 0.206}, {"measurement": "solubility (mole fraction)", "setting": "in THF, 303.28 K", "result": 0.207}, {"measurement": "solubility (mole fraction)", "setting": "in THF, 308.19 K", "result": 0.208}, {"measurement": "solubility (mole fraction)", "setting": "in THF, 313.23 K", "result": 0.209}, {"measurement": "solubility (mole fraction)", "setting": "in THF, 318.24 K", "result": 0.21}, {"measurement": "solubility (mole fraction)", "setting": "in THF, 323.16 K", "result": 0.211}, {"measurement": "solubility (mole fraction)", "setting": "in THF, 328.19 K", "result": 0.213}, {"measurement": "solubility (mole fraction)", "setting": "in THF, 333.17 K", "result": 0.214}, {"measurement": "solubility (mole fraction)", "setting": "in acetone, 278.16 K", "result": 0.0525}, {"measurement": "solubility (mole fraction)", "setting": "in acetone, 283.18 K", "result": 0.0541}, {"measurement": "solubility (mole fraction)", "setting": "in acetone, 288.27 K", "result": 0.056}, {"measurement": "solubility (mole fraction)", "setting": "in acetone, 293.33 K", "result": 0.0582}, {"measurement": "solubility (mole fraction)", "setting": "in acetone, 298.24 K", "result": 0.0604}, {"measurement": "solubility (mole fraction)", "setting": "in acetone, 303.19 K", "result": 0.0629}, {"measurement": "solubility (mole fraction)", "setting": "in acetone, 308.32 K", "result": 0.0657}, {"measurement": "solubility (mole fraction)", "setting": "in acetone, 313.16 K", "result": 0.0685}, {"measurement": "solubility (mole fraction)", "setting": "in acetone, 318.2 K", "result": 0.0717}, {"measurement": "solubility (mole fraction)", "setting": "in ethyl acetate, 283.2 K", "result": 0.00793}, {"measurement": "solubility (mole fraction)", "setting": "in ethyl acetate, 288.26 K", "result": 0.00847}, {"measurement": "solubility (mole fraction)", "setting": "in ethyl acetate, 293.28 K", "result": 0.00902}, {"measurement": "solubility (mole fraction)", "setting": "in ethyl acetate, 298.19 K", "result": 0.00958}, {"measurement": "solubility (mole fraction)", "setting": "in ethyl acetate, 303.21 K", "result": 0.0102}, {"measurement": "solubility (mole fraction)", "setting": "in ethyl acetate, 308.3 K", "result": 0.0109}, {"measurement": "solubility (mole fraction)", "setting": "in ethyl acetate, 313.16 K", "result": 0.0116}, {"measurement": "solubility (mole fraction)", "setting": "in ethyl acetate, 318.22 K", "result": 0.0124}, {"measurement": "solubility (mole fraction)", "setting": "in ethyl acetate, 323.16 K", "result": 0.0134}, {"measurement": "solubility (mole fraction)", "setting": "in ethyl acetate, 328.23 K", "result": 0.0144}, {"measurement": "solubility (mole fraction)", "setting": "in ethyl acetate, 333.17 K", "result": 0.0156}, {"measurement": "solubility (mole fraction)", "setting": "in ethyl formate, 283.17 K", "result": 0.00268}, {"measurement": "solubility (mole fraction)", "setting": "in ethyl formate, 288.18 K", "result": 0.00287}, {"measurement": "solubility (mole fraction)", "setting": "in ethyl formate, 293.21 K", "result": 0.00309}, {"measurement": "solubility (mole fraction)", "setting": "in ethyl formate, 298.26 K", "result": 0.00335}, {"measurement": "solubility (mole fraction)", "setting": "in ethyl formate, 303.16 K", "result": 0.00363}, {"measurement": "solubility (mole fraction)", "setting": "in ethyl formate, 308.19 K", "result": 0.00396}, {"measurement": "solubility (mole fraction)", "setting": "in ethyl formate, 313.27 K", "result": 0.00433}, {"measurement": "solubility (mole fraction)", "setting": "in ethyl formate, 318.25 K", "result": 0.00473}, {"measurement": "solubility (mole fraction)", "setting": "in ethyl formate, 323.29 K", "result": 0.00517}, {"measurement": "solubility (mole fraction)", "setting": "in methyl acetate, 278.17 K", "result": 0.0334}, {"measurement": "solubility (mole fraction)", "setting": "in methyl acetate, 283.26 K", "result": 0.0343}, {"measurement": "solubility (mole fraction)", "setting": "in methyl acetate, 288.27 K", "result": 0.0353}, {"measurement": "solubility (mole fraction)", "setting": "in methyl acetate, 293.21 K", "result": 0.0365}, {"measurement": "solubility (mole fraction)", "setting": "in methyl acetate, 298.24 K", "result": 0.0378}, {"measurement": "solubility (mole fraction)", "setting": "in methyl acetate, 303.16 K", "result": 0.0392}, {"measurement": "solubility (mole fraction)", "setting": "in methyl acetate, 308.22 K", "result": 0.0407}, {"measurement": "solubility (mole fraction)", "setting": "in methyl acetate, 313.28 K", "result": 0.0422}, {"measurement": "solubility (mole fraction)", "setting": "in methyl acetate, 318.17 K", "result": 0.0437}, {"measurement": "solubility (mole fraction)", "setting": "in methyl acetate, 323.19 K", "result": 0.0452}, {"measurement": "solubility (mole fraction)", "setting": "in n-butyl acetate, 283.18 K", "result": 0.00243}, {"measurement": "solubility (mole fraction)", "setting": "in n-butyl acetate, 288.16 K", "result": 0.00297}, {"measurement": "solubility (mole fraction)", "setting": "in n-butyl acetate, 293.21 K", "result": 0.00353}, {"measurement": "solubility (mole fraction)", "setting": "in n-butyl acetate, 298.19 K", "result": 0.0041}, {"measurement": "solubility (mole fraction)", "setting": "in n-butyl acetate, 303.22 K", "result": 0.0047}, {"measurement": "solubility (mole fraction)", "setting": "in n-butyl acetate, 308.26 K", "result": 0.00531}, {"measurement": "solubility (mole fraction)", "setting": "in n-butyl acetate, 313.27 K", "result": 0.00594}, {"measurement": "solubility (mole fraction)", "setting": "in n-butyl acetate, 318.18 K", "result": 0.00657}, {"measurement": "solubility (mole fraction)", "setting": "in n-butyl acetate, 323.22 K", "result": 0.00724}, {"measurement": "solubility (mole fraction)", "setting": "in n-butyl acetate, 328.24 K", "result": 0.00792}, {"measurement": "solubility (mole fraction)", "setting": "in n-butyl acetate, 333.19 K", "result": 0.0086}, {"measurement": "solubility (mole fraction)", "setting": "in n-butyl acetate, 338.28 K", "result": 0.00933}, {"measurement": "solubility (mole fraction)", "setting": "in n-butyl acetate, 343.25 K", "result": 0.0101}, {"measurement": "solubility (mole fraction)", "setting": "in n-butyl acetate, 348.24 K", "result": 0.0108}, {"measurement": "solubility (mole fraction)", "setting": "in n-butyl acetate, 353.26 K", "result": 0.0116}, {"measurement": "solubility (mole fraction)", "setting": "in water, 283.18 K", "result": 0.00115}, {"measurement": "solubility (mole fraction)", "setting": "in water, 288.26 K", "result": 0.00129}, {"measurement": "solubility (mole fraction)", "setting": "in water, 293.27 K", "result": 0.00152}, {"measurement": "solubility (mole fraction)", "setting": "in water, 298.21 K", "result": 0.00179}, {"measurement": "solubility (mole fraction)", "setting": "in water, 303.19 K", "result": 0.00211}, {"measurement": "solubility (mole fraction)", "setting": "in water, 308.22 K", "result": 0.0025}, {"measurement": "solubility (mole fraction)", "setting": "in water, 313.19 K", "result": 0.003}, {"measurement": "solubility (mole fraction)", "setting": "in water, 318.29 K", "result": 0.00367}, {"measurement": "solubility (mole fraction)", "setting": "in water, 323.18 K", "result": 0.00451}, {"measurement": "solubility (mole fraction)", "setting": "in water, 328.31 K", "result": 0.00569}, {"measurement": "solubility (mole fraction)", "setting": "in water, 333.22 K", "result": 0.00724}, {"measurement": "solubility (mole fraction)", "setting": "in water, 338.18 K", "result": 0.00943}, {"measurement": "solubility (mole fraction)", "setting": "in water, 343.17 K", "result": 0.0126}, {"measurement": "solubility (mole fraction)", "setting": "in water, 348.16 K", "result": 0.0172}, {"measurement": "solubility (mole fraction)", "setting": "in water, 353.28 K", "result": 0.0241}]}
